Data: patent US8124371B2, “Compositions and methods for destabilizing lysosomes to increase oncogenic or aberrant protein degradation” (priority 2003, dated 2012)
Where a SMILES comes first, the peptide text is derived from it. [ ]: non-standard residue; d: D form. The star is where a group is joined. Nle = CCCC[C@H](N)C(=O)O; Cbz = O=C(OCc1ccccc1)*; CH2F = FC*

Key:
[1] = test system: HA-tagged PML/RARα; test: In vitro degradation assay with lysates of NB4-S1 cells; format: biochemical; conditions: for blocking of PML/RARα degradation by lysates of arsenic-treated cells: inhibitor added to in vitro degradation assay
Procedure: Cell lysates of NB4-S1 cells, either treated for 72 hours with arsenic (1 μM) or left untreated, were obtained using a mild-lysis buffer that supported lysosomal enzymatic activity. In vitro degradation assays were performed using these lysates and HA-tagged PML/RARα was used as a target for degradation.

[2] = test system: wild-type cystic fibrosis protein (CFTR); test: CFTR degradation by cell content of arsenic-exposed COS cells; format: biochemical; conditions: CFTR over-expressed in MDCK cells; cell content of COS exposed to arsenic
From the text: (§1) This arsenic-activated degradation program was also engaged by non-leukemic cells. […] Accordingly, this lysosome-dependent degradative pathway can be employed as a general therapeutic target for the destruction of oncogenic (e.g., PML/RARα) or aberrant (e.g., CFTR) proteins in the prevention and treatment of cancer or other diseases which are associated with said proteins. Further, lysosome destabilization can be used to identify other small molecule activators which, like arsenic, would have therapeutic activity via induced destabilization of lysosomes that would in turn eliminate oncogenic or other aberrant proteins by triggering their destruction.

[3] = test system: NB4-S1 APL cells; test: Release of lysosomal proteins / cytochrome c into the cytosolic fraction, SDS-PAGE and immunoblot; format: cell-based; conditions: after 1 μM arsenic treatment
Procedure: (§2) By way of illustration, arsenic was applied to APL, retinoic acid-sensitive NB4-S1 cells and found to rapidly (within 2 hours) destabilize lysosomes in these leukemic cells as compared to untreated cells in an assay using a lysosome-specific targeting dye and confocal microscopy. […] Conversely, cytochrome c (an activator of caspase-induced apoptosis) was not detected in the cytosol until 96 hours.

[4] = test system: isolated lysosomes from NB4 APL cells; test: Degradation of isolated lysosomes in vitro
From the text: as §1

[5] = test system: NB4-S1 cells; test: Lysosome destabilization, lysosome-specific targeting dye and confocal microscopy; format: cell-based; conditions: compared to untreated cells
Procedure: as §2

[6] = test system: retinoic acid-sensitive NB4-S1 APL cells; test: Growth suppression, cell counts (Coulter counter); format: cell-based; conditions: for growth suppressive activity: agent alone, chloroquine ranked over retinoic acid-sensitive and -resistant cells
Procedure: Three independent experiments were conducted.
To identify other agents which destabilize lysosomes, APL cells were contacted with test agents and the ability of the test agent to induce cell death was evaluated.

[7] = test system: NB4-S1 APL cells; test: Apoptosis, Hoechst staining of nuclear DNA; format: cell-based; conditions: 20 μM
Procedure: (§3) Cell differentiation was evaluated using a nitroblue tetrazolium reduction assay, wherein the presence blue formazan deposits under light microscopy is indicative of differentiated cells. Further, apoptosis was evaluated using Hoechst staining of nuclear DNA wherein the DNA was characterized morphologically by nuclear condensation and fragmentation of chromosomes.
The percentage of apoptotic cells was determined. This experiment was performed independently three times and three random fields were selected to assess the percentage of apoptotic cells.

[8] = test system: APL NB4-S1 cells; test: Cell differentiation, nitroblue tetrazolium reduction assay; format: cell-based; conditions: 20 μM, 6 days
Procedure: as §3

## CCCC[C@@H](C=O)NC(=O)[C@H](CC(C)C)NC(=O)[C@H](CC(C)C)NC(C)=O [ALLN] (Ac-Leu-Leu-[Nle]-aldehyde)
[1]
  blocking of PML/RARα degradation by lysates of arsenic-treated cells: did not block PML/RARα degradation

## CC(NC(=O)C(NC(=O)OCc1ccccc1)C(C)C)C(=O)NC(CC(=O)O)C(=O)CF (stereo not drawn) [zVAD] (Cbz-Val-Ala-Asp-CH2F; configuration not given here)
[1]
  blocking of PML/RARα degradation by lysates of arsenic-treated cells: did not block PML/RARα degradation

## [AsH3] [arsenic]
[2]
  CFTR degradation: observed to be degraded
[1]; cells treated 72 hours, 1 μM, versus untreated cell lysates
  PML/RARα degradation by cell lysates of treated NB4-S1 cells: rapidly degraded
[3]
  cathepsin B detectable in the cytosolic fraction, earliest time: 30 min
  cytochrome c not detected in the cytosol until: 96 h
  lysosomal protein esterase detectable in the cytosolic fraction, earliest time: 5 min
[4]
  degradation of isolated lysosomes upon treatment: exhibited degradation in vitro
[5]
  time to destabilize lysosomes: ≤ 2 h

## CN(C)CCCN1c2ccccc2CCc2ccccc21 [Imipramine]
[6]
  growth suppressive activity: some growth suppressive activity

## CCN(CC)CCCC(C)Nc1ccnc2cc(Cl)ccc12 (centres unmarked) [Chloroquine, 7-chloro-4-(4-diethylamino-1-methylbutylamino) quinoline]
[7]
  induction of apoptosis: exposure time-dependent
[7]; 24 hours
  % Apoptosis: 16%
[7]; 48 hours
  % Apoptosis: 20%
[7]; 72 hours
  % Apoptosis: 30%
[8]
  induction of differentiation: does not induce differentiation
[6]; chloroquine 20 μM combined with retinoic acid 0.1 μM, FIG. 1A
  growth inhibitory effect in combination with retinoic acid: additive growth inhibitory effect

## CCCCCCCCCCCCC/C=C/[C@@H](O)[C@H](CO)NCCCCCCCC [N-octyl-D-erythro-sphingosine]
[6]
  growth suppressive activity: some growth suppressive activity
